# Columns and labels:
# [1] = target: human adenosine A2A receptor (Homo sapiens (Human), UniProt P29274); test: Adenosine receptor inhibition binding assay, [3H]ZM241385, HEK293 A2A receptor membranes; conditions: 1 nM [3H]ZM241385, HEK293-hA2A membranes, 25° C., 1 h, Ki from IC50 by Cheng-Prusoff
# Procedure: (§1) Inhibition binding assays were performed using 0.2 µg of membranes prepared from HEK293 cells infected with BacMam human adenosine A2A receptor or 1.4 µg of membranes prepared from HEK293 cells infected with BacMam human adenosine A1 receptor. Membranes were incubated in 50 mM Tris-HCl (HEK293-hA2A; pH 7.4) or 50 mM Tris-HCl, 100 mM NaCl, 10 mM MgCl2 (CHO-hA1; pH 7.4) in the presence of varying concentrations of test compound and 1 nM [^3H]ZM241385 (HEK293-hA2A) or [^3H]DPCPX (CHO-hA1) at 25° C. for 1 h. The assay was then terminated by rapid filtration onto GF/B grade Unifilter plates using a TomTec cell harvester, followed by 5 × 0.5 ml washes with ddH2O. Nonspecific binding was defined in the presence of 1 µM CGS 15943 (HEK293-hA2A) or 1 µM DPCPX (CHO-hA1). Bound radioactivity was determined by liquid scintillation counting and inhibition curves were analysed using a four-parameter logistic equation. IC50 values were converted to Ki values with the Cheng-Prusoff equation using a KD value derived from saturation binding studies.
# [2] = target: human adenosine A1 receptor (Homo sapiens (Human), UniProt P30542); test: Adenosine receptor inhibition binding assay, [3H]DPCPX, A1 receptor membranes; conditions: 1 nM [3H]DPCPX, 25° C., 1 h, Ki from IC50 by Cheng-Prusoff
# Procedure: as §1
# Chain of human adenosine A1 receptor (P30542 whole entry): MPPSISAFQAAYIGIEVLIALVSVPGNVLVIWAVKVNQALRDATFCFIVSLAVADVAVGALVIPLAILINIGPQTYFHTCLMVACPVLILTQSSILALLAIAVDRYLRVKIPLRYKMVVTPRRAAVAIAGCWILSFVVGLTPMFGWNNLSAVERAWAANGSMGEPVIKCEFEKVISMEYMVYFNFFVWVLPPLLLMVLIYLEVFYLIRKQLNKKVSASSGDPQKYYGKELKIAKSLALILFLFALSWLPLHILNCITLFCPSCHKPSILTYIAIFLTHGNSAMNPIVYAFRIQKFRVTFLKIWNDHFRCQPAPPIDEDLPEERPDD
# Chain of human adenosine A2A receptor (P29274 whole entry): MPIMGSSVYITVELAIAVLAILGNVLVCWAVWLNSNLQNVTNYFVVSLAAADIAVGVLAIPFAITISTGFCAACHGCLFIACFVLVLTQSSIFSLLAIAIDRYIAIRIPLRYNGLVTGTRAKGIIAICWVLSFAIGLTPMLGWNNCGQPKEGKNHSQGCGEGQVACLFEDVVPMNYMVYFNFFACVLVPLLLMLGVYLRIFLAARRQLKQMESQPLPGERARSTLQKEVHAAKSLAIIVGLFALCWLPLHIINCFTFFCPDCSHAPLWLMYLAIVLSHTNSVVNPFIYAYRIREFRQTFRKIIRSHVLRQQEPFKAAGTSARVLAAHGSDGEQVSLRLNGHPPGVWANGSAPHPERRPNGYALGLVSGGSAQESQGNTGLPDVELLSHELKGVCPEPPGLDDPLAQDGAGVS
Compound,A2A pKi [1],A1 pKi [2],Ki ([1]; read-out: A2A pKi (converted)) [µM],Ki ([2]; read-out: A1 pKi (converted)) [µM]
"Cc1cc(-c2c(-c3ccccc3)nc(N)n3c(=O)n(C4CCN(C(=O)OC(C)(C)C)C4)nc23)cc(C)n1 (stereo not drawn) [Example 2-1, tert-butyl 3-[5-amino-8-(2,6-dimethyl-4-pyridyl)-3-oxo-7-phenyl-[1,2,4]triazolo[4,3-c]pyrimidin-2-yl]pyrrolidine-1-carboxylate]",7.7,6.8,,
"Cc1cc(-c2c(-c3ccccc3)nc(N)n3c(=O)n(C4CCNC4)nc23)cc(C)n1 (stereo not drawn) [Example 2-2, 5-amino-8-(2,6-dimethyl-4-pyridyl)-7-phenyl-2-pyrrolidin-3-yl-[1,2,4]triazolo[4,3-c]pyrimidin-3-one]",7.4,5.7,,
"Cc1cc(-c2c(-c3ccccc3)nc(N)n3c(=O)n(C4CCN(C)C4)nc23)cc(C)n1 (stereo not drawn) [Example 2-3, 5-amino-8-(2,6-dimethyl-4-pyridyl)-2-(1-methylpyrrolidin-3-yl)-7-phenyl-[1,2,4]triazolo[4,3-c]pyrimidin-3-one]",7.8,6.1,,
"Cc1cc(-c2c(-c3ccccc3)nc(N)n3c(=O)n(CC4CCCN4C(=O)OC(C)(C)C)nc23)cc(C)n1 (stereo not drawn) [Example 2-4, tert-butyl 2-[[5-amino-8-(2,6-dimethyl-4-pyridyl)-3-oxo-7-phenyl-[1,2,4]triazolo[4,3-c]pyrimidin-2-yl]methyl]pyrrolidine-1-carboxylate]",7.9,6.6,,
"Cc1cc(-c2c(-c3ccccc3)nc(N)n3c(=O)n(CC4CCCN4)nc23)cc(C)n1 (stereo not drawn) [Example 2-5, 5-amino-8-(2,6-dimethyl-4-pyridyl)-7-phenyl-2-(pyrrolidin-2-ylmethyl)-[1,2,4]triazolo[4,3-c]pyrimidin-3-one]",7.4,6.1,,
"Cc1cc(-c2c(-c3ccccc3)nc(N)n3c(=O)n(CC4CCCN4C)nc23)cc(C)n1 (stereo not drawn) [Example 2-6, 5-amino-8-(2,6-dimethyl-4-pyridyl)-2-[(1-methylpyrrolidin-2-yl)methyl]-7-phenyl-[1,2,4]triazolo[4,3-c]pyrimidin-3-one]",9.1,6.2,,
"Cc1cc(-c2c(-c3ccccc3)nc(N)n3c(=O)n(C[C@H]4CCCN4C)nc23)cc(C)n1 [Example 2-7, 5-amino-8-(2,6-dimethyl-4-pyridyl)-2-[[(2R)-1-methylpyrrolidin-2-yl]methyl]-7-phenyl-[1,2,4]triazolo[4,3-c]pyrimidin-3-one]",9.3,7.4,,
"Cc1cc(-c2c(-c3ccccc3)nc(N)n3c(=O)n(C[C@@H]4CCCN4C)nc23)cc(C)n1 [Example 2-8, 5-amino-8-(2,6-dimethyl-4-pyridyl)-2-[[(2S)-1-methylpyrrolidin-2-yl]methyl]-7-phenyl-[1,2,4]triazolo[4,3-c]pyrimidin-3-one]",9.0,6.8,,
"COCCN1CCC[C@H]1Cn1nc2c(-c3cc(C)nc(C)c3)c(-c3ccccc3)nc(N)n2c1=O [Example 2-9, 5-amino-8-(2,6-dimethyl-4-pyridyl)-2-[[(2S)-1-(2-methoxyethyl)pyrrolidin-2-yl]methyl]-7-phenyl-[1,2,4]triazolo[4,3-c]pyrimidin-3-one]",8.4,6.1,,
"COCCN1CCC[C@@H]1Cn1nc2c(-c3cc(C)nc(C)c3)c(-c3ccccc3)nc(N)n2c1=O [Example 2-10, 5-amino-8-(2,6-dimethyl-4-pyridyl)-2-[[(2R)-1-(2-methoxyethyl)pyrrolidin-2-yl]methyl]-7-phenyl-[1,2,4]triazolo[4,3-c]pyrimidin-3-one]",8.2,6.3,,
"Cc1cc(-c2c(-c3ccccc3)nc(N)n3c(=O)n(C[C@@H]4CC(F)(F)CN4)nc23)cc(C)n1 [Example 2-11, 5-amino-2-[[(2S)-4,4-difluoropyrrolidin-2-yl]methyl]-8-(2,6-dimethyl-4-pyridyl)-7-phenyl-[1,2,4]triazolo[4,3-c]pyrimidin-3-one]",8.7,6.0,,
"Cc1cc(-c2c(-c3ccccc3)nc(N)n3c(=O)n(C[C@H]4CC(F)(F)CN4)nc23)cc(C)n1 [Example 2-12, 5-amino-2-[[(2R)-4,4-difluoropyrrolidin-2-yl]methyl]-8-(2,6-dimethyl-4-pyridyl)-7-phenyl-[1,2,4]triazolo[4,3-c]pyrimidin-3-one]",8.1,6.4,,
"Cc1cc(-c2c(-c3ccccc3)nc(N)n3c(=O)n(C[C@@H]4CC(F)(F)CN4C)nc23)cc(C)n1 [Example 2-13, 5-amino-2-[[(2S)-4,4-difluoro-1-methyl-pyrrolidin-2-yl]methyl]-8-(2,6-dimethyl-4-pyridyl)-7-phenyl-[1,2,4]triazolo[4,3-c]pyrimidin-3-one]",8.2,6.3,,
"Cc1cc(-c2c(-c3ccccc3)nc(N)n3c(=O)n(C[C@H]4CCCO4)nc23)cc(C)n1 [Example 2-16, 5-amino-8-(2,6-dimethyl-4-pyridyl)-7-phenyl-2-[[(2R)-tetrahydrofuran-2-yl]methyl]-[1,2,4]triazolo[4,3-c]pyrimidin-3-one]",9.2,6.7,,
"Cc1cc(-c2c(-c3ccccc3)nc(N)n3c(=O)n(C[C@H]4C[C@H](F)CN4)nc23)cc(C)n1 [Example 2-18, 5-amino-8-(2,6-dimethyl-4-pyridyl)-2-[[(2R,4S)-4-fluoropyrrolidin-2-yl]methyl]-7-phenyl-[1,2,4]triazolo[4,3-c]pyrimidin-3-one]",8.2,6.4,,
"Cc1cc(-c2c(-c3ccccc3)nc(N)n3c(=O)n(C[C@H]4C[C@@H](F)CN4)nc23)cc(C)n1 [Example 2-19, 5-amino-8-(2,6-dimethyl-4-pyridyl)-2-[[(2R,4R)-4-fluoropyrrolidin-2-yl]methyl]-7-phenyl-[1,2,4]triazolo[4,3-c]pyrimidin-3-one]",8.0,6.2,,
"Cc1cc(-c2c(-c3ccccc3)nc(N)n3c(=O)n(C[C@@H]4C[C@H](F)CN4)nc23)cc(C)n1 [Example 2-20, 5-amino-8-(2,6-dimethyl-4-pyridyl)-2-[[(2S,4S)-4-fluoropyrrolidin-2-yl]methyl]-7-phenyl-[1,2,4]triazolo[4,3-c]pyrimidin-3-one]",8.5,6.3,,
"Cc1cc(-c2c(-c3ccccc3)nc(N)n3c(=O)n(C[C@@H]4C[C@@H](F)CN4)nc23)cc(C)n1 [Example 2-21, 5-amino-8-(2,6-dimethyl-4-pyridyl)-2-[[(2S,4R)-4-fluoropyrrolidin-2-yl]methyl]-7-phenyl-[1,2,4]triazolo[4,3-c]pyrimidin-3-one]",8.4,6.4,,
"Cc1cc(-c2c(-c3ccccc3)nc(N)n3c(=O)n(C[C@@H]4C[C@H](O)CN4)nc23)cc(C)n1 [Example 2-22, 5-amino-8-(2,6-dimethyl-4-pyridyl)-2-[[(2S,4S)-4-hydroxypyrrolidin-2-yl]methyl]-7-phenyl-[1,2,4]triazolo[4,3-c]pyrimidin-3-one]",8.2,5.9,,
"Cc1cc(-c2c(-c3ccccc3)nc(N)n3c(=O)n(C[C@H]4C[C@@H](O)CN4)nc23)cc(C)n1 [Example 2-23, 5-amino-8-(2,6-dimethyl-4-pyridyl)-2-[[(2R,4R)-4-hydroxypyrrolidin-2-yl]methyl]-7-phenyl-[1,2,4]triazolo[4,3-c]pyrimidin-3-one]",8.2,5.9,,
"Cc1cc(-c2c(-c3ccccc3)nc(N)n3c(=O)n(CCN4CCCC4)nc23)cc(C)n1 [Example 2-26, 5-amino-8-(2,6-dimethyl-4-pyridyl)-7-phenyl-2-(2-pyrrolidin-1-ylethyl)-[1,2,4]triazolo[4,3-c]pyrimidin-3-one]",6.9,<5.7,,
"COc1cc(-c2c(-c3ccccc3)nc(N)n3c(=O)n(C[C@H]4CCCO4)nc23)cc(C)n1 [Example 2-27, 5-amino-8-(2-methoxy-6-methyl-4-pyridyl)-7-phenyl-2-[[(2R)-tetrahydrofuran-2-yl]methyl]-[1,2,4]triazolo[4,3-c]pyrimidin-3one]",9.6,6.7,,
"[2H]c1c([2H])c([2H])c(-c2nc(N)n3c(=O)n(C[C@H]4CCCO4)nc3c2-c2cc(C)nc(CO)c2)c([2H])c1[2H] [Example 2-30, 5-amino-8-[2-(hydroxymethyl)-6-methyl-4-pyridyl]-7-(2,3,4,5,6-pentadeuteriophenyl)-2-[[(2R)-tetrahydrofuran-2-yl]methyl]-[1,2,4]triazolo[4,3-c]pyrimidin-3-one]",,,0.001,0.501
"Cc1cc(-c2c(-c3ccc(F)cc3)nc(N)n3c(=O)n(C[C@H]4CCCO4)nc23)cc(CO)n1 [Example 2-31, 5-amino-7-(4-fluorophenyl)-8-[2-(hydroxymethyl)-6-methyl-4-pyridyl]-2-[[(2R)-tetrahydrofuran-2-yl]methyl]-[1,2,4]triazolo[4,3-c]pyrimidin-3-one]",8.4,6.1,,

# Reference: patent US20230271964A1, “5-AMINO-8-(4-PYRIDYL)-[1,2,4]TRIAZOLO[4,3-C]PYRIMIDIN-3-ONE COMPOUNDS FOR USE AGAINST CANCER” (ASTRAZENECA AB, priority 2020, published 2023)
